Test results published in patent publication US7943338B2, “Autoimmune conditions and NADPH oxidase defects” (Arexis AB, priority 2002, dated 2011).
Entries after “also recorded” stand apart in the source; their conditions may differ. One block for each compound: values may come before it.

How the values were obtained:
mice = settings: daily intraperitoneal 2.8 μmol/kg (880 μg/kg); cited from earlier work
DA and DA.E3chr12 rats = settings: PIA
Method: Arthritic development was monitored in all limbs using a macroscopic scoring system. Briefly, 1 point was given for each swollen or red toe, 1 point for each swollen midfoot, digit, or knuckle, and 5 points for a swollen ankle. The maximum score for a limb was 15 points, and the maximum score for a rat was 60 points.
For administration, 50 mg of DPI was dissolved in 250 mL DMSO/PBS. About 0.5 mL was injected intraperitoneally into rats on day 0, 2, 3, 4, 5, 6, 7, 8, 10, 12, 14, 17, 19, and 21.
Arthritis development was monitored in all limbs.

NADPH complex [1] = assay: Oxygen burst studies, activation of NADPH complex (cell type not stated); assay type: cell-based; settings: oxygen burst studies / WST-1 assay
Method: (§1) The unsaturated fatty acids C14:1-C24:1 (myristoleic acid, palmitoleic acid, oleic acid, linoleic acid, linolenic acid, 11c-eicosenoic acid, arachidonic acid, erucic acid, and neuronic acid) and squalenee (Sigma) were also tested.
(§2) 10 μL of each of the oils to be tested was added with 9 μL of WST1 to the wells of a 96 well microtitre plate. 10^6 cells/mL (100 μL of 10^7 cells/mL) were added to each well and the color change measured in a spectrophotometer at 450 nm at 37° for 60 minutes (one measurement/min).
10 μL each of the oils to be tested were added to the wells of a 96 well microtitre plate. 50 μL of cytochrome C (4 mg/mL) and […] (50 μL of 10^7 cells/mL) were added to each well and the absorbance measured in a spectrophotometer at 550 nm at 37° C. for 60 minutes (one measurement/minute).

DA rats [2] = assay: Arthritis-inducing effect of oils injected intradermally at the base of the tail; assay type: in vivo, Rat (Rattus norvegicus); settings: oil injected intradermally at base of tail, scored days 12-31, FIG. 10
Excerpt: The arthritis-inducing effects of the oils was examined by injecting the oils intradermally into DA rats. […] Note that p<0.05 for alkanes shorter than C15 compared to C19. All statistics evaluated with student's t-test. N=4 for all groups.

[3] = in vivo; cited from earlier work
[4] = in vivo; cited from earlier work; remark: listed apart in the source
[5] = In vivo distribution of 14C-labeled oils; design: species or system Rat (Rattus norvegicus); settings: for arthritis in rats treated with radioactively-labeled oils: 200 μL i.d. at base of tail, DA rats, FIG. 13; for extent of distribution to the lymph nodes: hexadecane compared with oleic acid
Method: [1-14C]-Hexadecane and [1-14C]-Oleic acid were purchased from Amersham. The oils were injected intradermally at the base of the tail in 18 DA rats (200 μL). At day 10, the organs (lymph nodes, spleen, liver and kidney) of three rats from each group were collected. The organs were weighed and homogenized in a total volume of 2 mL PBS and frozen. The same procedure was followed at day 20 and at day 30. 1 mL of the homogenised samples was then added to 10 mL Ready Safe (Beckman) and counted in a beta counter. The distribution of radioactive labelled hexadecane to the lymph nodes was also inspected at earlier time points (day 3, day 6, day 10, and day 13).

DA rats [6] = assay: Treatment of hexadecane-induced arthritis with hexadecene; assay type: in vivo, Rat (Rattus norvegicus); settings: rat, in vivo
Method: Groups of DA rats were injected i.d. at the base of the tail as follows: • Hexadecane 200 μL day 0; • Hexadecene 200 μL day 0; • Hexadecene 200 μL day −5, Hexadecane 200 μL day 0; • Olive oil 200 μL day −5, Hexadecane 200 μL day 0; • Hexadecene 200 μL day +5, Hexadecane 200 μL day 0; and • Olive oil day 200 μL +5, Hexadecane 200 μL day 0.
The rats were scored as indicated above. Olive oil was used as a control.

DA rats [7] = assay: Route of administration of phytol in treatment of PIA; assay type: in vivo, Rat (Rattus norvegicus); settings: FIG. 17
Method: Groups of DA rats were treated with phytol according to one of the following treatment regimens at day −5 and at day +5. All rats were injected with […] (200 μL) at day 0 intradermally at the base of the tail. Phytol was administered to groups of rats as follows: • 25 μL phytol intranasally (i.n.); • 200 μL phytol intraperitoneally (i.p.); • 200 μL phytol intradermally at the base of the tail (i.d.); and • 1 mL phytol per os (p.o.).
The rats were scored from day 9 using the extended scoring system (as discussed previously).

DA rats [8] = assay: Treatment of active PIA with phytol or undecane; assay type: in vivo, Rat (Rattus norvegicus); settings: 200 μL i.p. or i.d. at day 21 and day 26; FIG. 23
Method: Groups of DA rats were injected with […] at day 0. The […] (150 μL) was injected intra-dermal at the base of the tail. The rats were scored from day 9 using the extended scoring system (see above). Then, the rats were treated at day 21 and at day 26 with one of the following alternatives: (1) 200 μL phytol intra-peritoneal; (2) 200 μL phytol intra-dermal at the base of the tail; (3) 200 μL undecane intra-peritoneal; (4) 200 μL undecane intra-dermal at the base of the tail; or (5) control untreated.

DA rats [9] = assay: Collagen induced arthritis (CIA) in rats treated with phytol; assay type: in vivo, Rat (Rattus norvegicus); settings: FIG. 22
Method: DA rats were treated according to one of the following alternatives: (1) 200 μL phytol intra-dermal at the base of the tail at day −10; (2) 200 μL phytol intra-dermal at the base of the tail at day −5; (3) 200 μL phytol intra-peritoneal at day −5 and day +5; or (4) control untreated. CIA was induced in all animals at day 0 by injecting […] of collagen II dissolved in 75 μL 0.1 M Acetic acid and emulsified in 75 μL IFA. The rats were scored from day 10 using the extended scoring system (see above).

DA rats [10] = assay: Treatment of experimental allergic encephalomyelitis (EAE) with phytol; assay type: in vivo, Rat (Rattus norvegicus); settings: 200 μL phytol at day -10 and day +5; olive oil control; p<0.05; FIG. 16
Method: Groups of DA rats were injected at the base of the tail with 200 μL phytol at day -10, day -5, and day +5. Olive oil was used as a control. At day 0, all rats were treated (immunized) with 200 μL SCH (DA spinal cord homogenate, to induce EAE) i.d. at the base of the tail. The rats were then scored according to the following scale for 40 days: • 0=Normal • 1=Tail weakness • 2=Tail paralysis • 3=Tail paralysis and mild […] • 4=Tail paralysis and severe […] • 5=Tail paralysis and paralysis of one limb • 6=Tail paralysis and paralysis of a pair of limbs • 7=Tetra-paresis • 8=Pre-morbid or dead.

NADPH complex [11] = molecular target: T1, NADPH complex (Homo sapiens, UniProt P14598); assay: Oxidative burst WST-1 assay, HL60 cells; assay type: cell-based; settings: FIG. 9B
T1 construct: endogenous in cells; host or cells: HL60 cells differentiated with 1.25% DMSO
T1 sequence (P14598 1-390): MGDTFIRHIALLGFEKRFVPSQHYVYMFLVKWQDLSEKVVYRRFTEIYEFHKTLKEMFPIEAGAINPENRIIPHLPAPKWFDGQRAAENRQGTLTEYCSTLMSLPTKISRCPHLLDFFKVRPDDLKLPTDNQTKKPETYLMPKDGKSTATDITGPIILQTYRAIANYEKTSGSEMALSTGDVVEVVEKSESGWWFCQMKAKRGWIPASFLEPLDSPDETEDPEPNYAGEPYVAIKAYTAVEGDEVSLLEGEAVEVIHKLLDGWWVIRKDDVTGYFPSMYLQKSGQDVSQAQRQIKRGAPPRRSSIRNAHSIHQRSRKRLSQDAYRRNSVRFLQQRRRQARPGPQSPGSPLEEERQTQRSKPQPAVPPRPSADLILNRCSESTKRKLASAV
Method: The unsaturated fatty acids C14:1-C24:1 (myristoleic acid, palmitoleic acid, oleic acid, linoleic acid, linolenic acid, 11c-eicosenoic acid, arachidonic acid, erucic acid, and neuronic acid) and squalenee (Sigma) were also tested. The oils were solubilized by dilution in cyclodextrin (100 mM in PBS). Human […] cell line HL60 was cultured in Dulbeccos complete medium with Hepes, 10% Fetal calf serum, and Penicillin-Streptomycin. HL60 cells differentiated to neutrophil-macrophages six days after addition of 1.25% DMSO. The cells were spun down at 1200 rpm for 5 minutes and then washed with PBS twice. The cells were then resuspended in PBS to a concentration of about 10^7 cells/mL. 10 μL of each of the oils to be tested was added with 9 μL of WST1 to the wells of a 96 well microtitre plate. 10^6 cells/mL (100 μL of 10^7 cells/mL) were added to each well and the color change measured in a spectrophotometer at 450 nm at 37° for 60 minutes (one measurement/min).

NADPH complex [12] = assay: Oxidative burst WST-1 assay, E3 rat peritoneal cells; assay type: cell-based; settings: peritoneal cells from E3 rat after thioglycolate; FIG. 9A
Method: as §1, with “tested. The oils were solubilized by dilution in cyclodextrin (100 mM in PBS).” for “tested.”
5 mL thioglycolate (2.4%) was injected intraperitoneally in E3 rats to elicit recruitment of neutrophils 16 hours before sacrifice. 40 mL PBS+hepes (1%) was injected into the peritoneum and the cell suspension extracted. Red blood cells were lysed with 0.84% NH4Cl, and WBC were washed in PBS and resuspended in PBS at a concentration of about 10^7 cells/mL.
as §2

DA rats [13] = assay: Treatment/prevention of pristane-induced arthritis with undecane; assay type: in vivo, Rat (Rattus norvegicus)
Method: Groups of DA rats were injected intradermally at the base of the tail with 200 μL of the oils as indicated below: • Undecane day −10, […] day 0; • Olive oil day −10, […] day 0; • Undecane day −5, […] day 0; • Undecanol day −5, […] day 0; Olive oil day −5, […] day 0; • Undecane day 5, […] day 0; and • Olive oil day 5, […] day 0.
The rats were scored every other day starting at day 11 according to the extended scoring system where every red or swollen toe or mid foot scored one point, and a red and swollen ankle scored five points, yielding a total of 15 points/limb and 60 points/rat. Olive oil and undecanol were used as controls.

Compound: c1ccc2c(c1)[I+]c1ccccc1-2 [DPI, diphenyleneiodonium chloride]
reduction of arthritis (mice): 50%
severity of arthritis (DA and DA.E3chr12 rats; DPI 1.25 μmol/kg i.p. on days 0-21, FIG. 6): increased severity of arthritis
accumulated arthritis scores (DA and DA.E3chr12 rats; DPI-treated vs control rats, FIG. 7): greater accumulated arthritis scores than control rats

arthritis induction (DA rats [2]): did induce arthritis
Compound: CCCCCCCCCCCCCCC [Pentadecane, pentadecane]
activation of the NADPH complex (NADPH complex [1]): did not activate the NADPH complex

arthritis induction (DA rats [2]): induce arthritis
Compound: CCCCCCCCCCCCCCCCC [heptadecane]
activation of the NADPH complex (NADPH complex [1]): activate the NADPH complex

time of maximum accumulation in the lymph nodes ([5]; FIG. 15): 10 days
extent of distribution to the lymph nodes [5]: higher extent than oleic acid
arthritis induction (DA rats [2]): induced arthritis
arthritis-inducing capacity (DA rats [6]): induces arthritis
Compound: CCCCCCCCCCCCCCCC [hexadecane]
distribution of 14C-labeled hexadecane [3]: disseminated predominantly to the lymph nodes
arthritis induction [4]: induce arthritis
arthritis in rats treated with radioactively-labeled oils [5]: only the rats injected with hexadecane had arthritis
time course of accumulation in the lymph nodes ([5]; days 3, 6, 10, 13 and later, FIG. 15): increase in the accumulation of hexadecane in the lymph nodes until day 10; also recorded: slowly decreased
activation of the NADPH complex (NADPH complex [1]): activated the complex

arthritis induction (DA rats [2]): induce arthritis
Compound: CCCCCCCCCCCCCCCCCC [octadecane]
activation of the NADPH complex (NADPH complex [1]): activate the NADPH complex

arthritis in rats treated with radioactively-labeled oils [5]: does not induce arthritis
Compound: CCCCCCCC/C=C\CCCCCCCC(=O)O [oleic acid]
extent of distribution to the lymph nodes [5]: not distributed to the lymph nodes to as high an extent as the hexadecane

Compound: C/C(=C\CO)CCC[C@H](C)CCC[C@H](C)CCCC(C)C [phytol]
effect on PIA (DA rats [7]; 25 μL phytol i.n. day -5 and day +5): ameliorative and preventive effects
effect on PIA (DA rats [7]; 200 μL phytol i.d. day -5 and day +5): ameliorating and preventive effect
effect on PIA (DA rats [7]; 200 μL phytol i.p. day -5 and day +5): ameliorative and preventive effects
effect on active arthritis in PIA rat model (DA rats [8]): effective against active arthritis
arthritis induction [4]: do not
development of arthritis in CIA rat model (DA rats [9]; 200 μL phytol intra-dermal day -10 or day -5): prevented development of arthritis
development of arthritis in CIA rat model (DA rats [9]; 200 μL phytol intra-peritoneal day -5 and day +5): prevented development of arthritis
additive score and maximum score of EAE, phytol vs control rats (DA rats [10]): significant difference

Compound: CCCCCCCCCCC [undecane]
activation of the oxidative burst (WST-1 assay) (NADPH complex [11]): potent activator
activation of the oxidative burst (WST-1 assay) (NADPH complex [12]): potent activator
effect on active arthritis in PIA rat model (DA rats [8]): effective against active arthritis
additive score and maximum score of PIA, undecane vs olive oil (DA rats [13]; 200 μL i.d. day -5, pristane day 0, p<0.05, FIG. 11B, 11C): significant difference
additive score and maximum score of PIA, undecane vs undecanol (DA rats [13]; 200 μL i.d. day -5, pristane day 0, p=0.05 additive, p<0.05 maximum): significant difference
arthritis score / preventive effect, undecane day +5 compared with day -10 or day -5 (DA rats [13]; 200 μL i.d., pristane day 0): slightly higher score; also recorded: did not show as significant a preventive effect as at day −10 or at day −5
activation of the NADPH complex (NADPH complex [1]): activated the NADPH complex
arthritis induction (DA rats [2]): did not induce arthritis
